Source: patent US20230233576A1, “ECLITASERTIB FOR USE IN TREATING CONDITIONS INVOLVING SYSTEMIC HYPERINFLAMMATORY RESPONSE” (priority 2020, published 2023)

Test system: adult participants hospitalized for severe COVID-19
Test: Phase 1b severe COVID-19 study: adverse events and deaths
Format: in vivo, human
Text: Safety evaluation was based on adverse events (Aes) including serious adverse events (SAEs) and adverse events of special interest (AESIs) (i.e., pregnancy, symptomatic overdose with IMP. Alanine aminotransferase [ALT] increase, and anemia), and treatment-emergent adverse events (TEAEs) leading to treatment discontinuation.
The primary focus of AE reporting was on treatment emergent adverse events (TEAEs). Treatment emergent adverse events were Aes that were not present at baseline or represented the exacerbation of a pre-existing condition during the on-treatment period (treatment-emergent period), defined as the time from the first administration of the IMP up to and including the day of last dose of study drug plus 5 days.
All adverse events were coded to a “preferred term (PT)”, “high-level term (HLT)”, “high-level group term (HLGT)”, and associated primary SOC using Medical Dictionary for Regulatory Activities (MedDRA) version 23.1.
The number and cumulative incidence rate of deaths [%] during the on-study period were computed by treatment group: number of deaths divided by the number of participants. Kaplan-Meier plot for time to death was presented by treatment group.

[1] = 600 mg (N = 47), Safety population

## CN1C(=O)[C@@H](NC(=O)c2nnc(Cc3ccccc3)[nH]2)COc2cccnc21 [RIPK1 Inhibitor, (S)-5-benzyl-N-(5-methyl-4-oxo-2,3,4,5-tetrahydropyrido[3,2-b][1,4]oxazepin-3-yl)-4H-1,2,4-triazole-3-carboxamide]
600 mg
  intensity of the majority of the TEAEs: grade 2
  participants with PCSAs in hemoglobin and hematocrits considered as TEAEs of anemia: 1 participants
[1]
  Participants with TEAE(s) (SAE): Any class: 6 (12.8) n (%)
  Participants with TEAE(s) (SAE): PT Bacterial infection: 1 (2.1) n (%)
  Participants with TEAE(s) (SAE): PT Cardiac arrest: 0 n (%)
  Participants with TEAE(s) (SAE): PT Condition aggravated: 2 (4.3) n (%)
  Participants with TEAE(s) (SAE): PT Peripheral artery thrombosis: 1 (2.1) n (%)
  Participants with TEAE(s) (SAE): PT Pneumonia bacterial: 1 (2.1) n (%)
  Participants with TEAE(s) (SAE): PT Pseudomonas infection: 1 (2.1) n (%)
  Participants with TEAE(s) (SAE): PT Pulmonary embolism: 1 (2.1) n (%)
  Participants with TEAE(s) (SAE): PT Respiratory failure: 0 n (%)
  Participants with TEAE(s) (SAE): SOC CARDIAC DISORDERS: 0 n (%)
  Participants with TEAE(s) (SAE): SOC GENERAL DISORDERS AND ADMINISTRATION SITE CONDITIONS: 2 (4.3) n (%)
  Participants with TEAE(s) (SAE): SOC INFECTIONS AND INFESTATIONS: 3 (6.4) n (%)
  Participants with TEAE(s) (SAE): SOC RESPIRATORY, THORACIC AND M[…]: 1 (2.1) n (%)
  Participants with TEAE(s) (SAE): SOC VASCULAR DISORDERS: 1 (2.1) n (%)
  TEAE, Any class: number of participants: 24
  TEAE, Any class: percentage of participants: (51.1) %
  TEAE, PT Alanine aminotransferase increased: number of participants: 6
  TEAE, PT Alanine aminotransferase increased: percentage of participants: (12.8) %
  TEAE, PT Anaemia: number of participants: 1
  TEAE, PT Anaemia: percentage of participants: (2.1) %
  TEAE, PT Anxiety disorder: number of participants: 1
  TEAE, PT Anxiety disorder: percentage of participants: (2.1) %
  TEAE, PT Arterial injury: number of participants: 1
  TEAE, PT Arterial injury: percentage of participants: (2.1) %
  TEAE, PT Aspartate aminotransferase increased: number of participants: 1
  TEAE, PT Aspartate aminotransferase increased: percentage of participants: (2.1) %
  TEAE, PT Back pain: number of participants: 1
  TEAE, PT Back pain: percentage of participants: (2.1) %
  TEAE, PT Bacterial infection: number of participants: 1
  TEAE, PT Bacterial infection: percentage of participants: (2.1) %
  TEAE, PT Blood pressure increased: number of participants: 0
  TEAE, PT Cardiac arrest: number of participants: 0
  TEAE, PT Cerebral ischaemia: number of participants: 0
  TEAE, PT Chest discomfort: number of participants: 1
  TEAE, PT Chest discomfort: percentage of participants: (2.1) %
  TEAE, PT Cholelithiasis: number of participants: 0
  TEAE, PT Constipation: number of participants: 1
  TEAE, PT Constipation: percentage of participants: (2.1) %
  TEAE, PT Dehydration: number of participants: 1
  TEAE, PT Dehydration: percentage of participants: (2.1) %
  TEAE, PT Diarrhoea: number of participants: 4
  TEAE, PT Diarrhoea: percentage of participants: (8.5) %
  TEAE, PT Drug hypersensitivity: number of participants: 1
  TEAE, PT Drug hypersensitivity: percentage of participants: (2.1) %
  TEAE, PT Dyspepsia: number of participants: 0
  TEAE, PT Dyspnoea: number of participants: 1
  TEAE, PT Dyspnoea: percentage of participants: (2.1) %
  TEAE, PT Emphysema: number of participants: 1
  TEAE, PT Emphysema: percentage of participants: (2.1) %
  TEAE, PT Encephalopathy: number of participants: 0
  TEAE, PT Fatigue: number of participants: 1
  TEAE, PT Fatigue: percentage of participants: (2.1) %
  TEAE, PT Flatulence: number of participants: 1
  TEAE, PT Flatulence: percentage of participants: (2.1) %
  TEAE, PT Furuncle: number of participants: 0
  TEAE, PT Gastritis: number of participants: 0
  TEAE, PT Gastrooesophageal sphincter insufficiency: number of participants: 0
  TEAE, PT Hyperglycaemia: number of participants: 1
  TEAE, PT Hyperglycaemia: percentage of participants: (2.1) %
  TEAE, PT Hypertension: number of participants: 1
  TEAE, PT Hypertension: percentage of participants: (2.1) %
  TEAE, PT Hypoglycaemia: number of participants: 1
  TEAE, PT Hypoglycaemia: percentage of participants: (2.1) %
  TEAE, PT Hypophosphataemia: number of participants: 1
  TEAE, PT Hypophosphataemia: percentage of participants: (2.1) %
  TEAE, PT Metabolic acidosis: number of participants: 0
  TEAE, PT Nausea: number of participants: 1
  TEAE, PT Nausea: percentage of participants: (2.1) %
  TEAE, PT Non-cardiac chest pain: number of participants: 1
  TEAE, PT Non-cardiac chest pain: percentage of participants: (2.1) %
  TEAE, PT Noninfective bronchitis: number of participants: 0
  TEAE, PT Oesophageal ulcer: number of participants: 0
  TEAE, PT Oesophagitis: number of participants: 0
  TEAE, PT Oropharyngeal pain: number of participants: 1
  TEAE, PT Oropharyngeal pain: percentage of participants: (2.1) %
  TEAE, PT Ovarian cyst: number of participants: 0
  TEAE, PT Peripheral artery thrombosis: number of participants: 1
  TEAE, PT Peripheral artery thrombosis: percentage of participants: (2.1) %
  TEAE, PT Pleural effusion: number of participants: 0
  TEAE, PT Pneumomediastinum: number of participants: 0
  TEAE, PT Pneumonia bacterial: number of participants: 1
  TEAE, PT Pneumonia bacterial: percentage of participants: (2.1) %
  TEAE, PT Pneumonia: number of participants: 0
  TEAE, PT Pneumoperitoneum: number of participants: 0
  TEAE, PT Pneumothorax: number of participants: 0
  TEAE, PT Procedural pneumothorax: number of participants: 0
  TEAE, PT Pseudomembranous colitis: number of participants: 1
  TEAE, PT Pseudomembranous colitis: percentage of participants: (2.1) %
  TEAE, PT Pseudomonas infection: number of participants: 1
  TEAE, PT Pseudomonas infection: percentage of participants: (2.1) %
  TEAE, PT Psychomotor hyperactivity: number of participants: 0
  TEAE, PT Pulmonary embolism: number of participants: 1
